The values that follow come from article PMC9674851, “Biological effects of the loss of homochirality in a multicellular organism” (Nature Communications, 2022).

Data set [1] addresses T1, recombinant human active Caspase-3 (Homo sapiens, UniProt P42574).
T1 construct: Assay was performed with recombinant human active Caspase-3 (556471, BD Biosciences); purchased BD Biosciences 556471
T1 sequence (P42574 29-175 limits assumed): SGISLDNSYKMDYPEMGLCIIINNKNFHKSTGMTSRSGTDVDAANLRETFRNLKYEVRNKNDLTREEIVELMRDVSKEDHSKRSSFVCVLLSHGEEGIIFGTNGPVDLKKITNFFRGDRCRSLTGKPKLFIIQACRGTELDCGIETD
T1 sequence (P42574 176-277 limits assumed): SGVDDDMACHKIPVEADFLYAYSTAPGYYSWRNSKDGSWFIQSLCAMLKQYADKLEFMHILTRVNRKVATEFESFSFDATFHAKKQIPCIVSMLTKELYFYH
The experiment in a line: ChiCAS: chiral-selective in vitro DEVD-ase assay. Particulars: for caspase-3 activity: substrate 20 µM in HEPES assay buffer with 10 mM DTT, fluorescence at 460 nm; for cleavage by Caspase-3 (in words): recombinant human Caspase-3, fluorogenic AMC substrates. Type of data set: biochemical. Here is the method:
The following homochiral and heterochiral fluorogenic substrates were chemically synthesised: Ac-DEV-(L-aspartate)-AMC (positive control), Ac-DEV-(iso-L-aspartate)-AMC, Ac-DEV-(D-aspartate)-AMC, Ac-DEV-(iso-D-aspartate)-AMC, Ac-DEVG-AMC and Ac-DEV-(L-alanine)-AMC (negative control) and […] (custom peptide synthesis by GenScript). All synthetic peptides were dissolved in DMSO and stored at -80 °C. Reactions were performed as described below. Ac-DEVx-AMC substrates were used in a final concentration of 20 μM in assay buffer (50 mM HEPES, 100 mM NaCl, 0,1% CHAPS, 1 mM EDTA, 10% Glycerol, 10 mM DTT - immediately added before use). Assay was performed with recombinant human active Caspase-3 (556471, BD Biosciences). Reactions were performed in 96 well microplates (100 μl/reaction) and caspase activity was monitored spectrophotometrically by the increase in fluorescence at 460 nm using Synergy 4 BioTek fluorescence absorbance microplate reader and Gen5 program.

On the set-up of data set [2]: method as in earlier work. Particulars: ref http://www.ilo.org/dyn/icsc/showcard.display?p_version=2&p_card_id=1439; cited from earlier work.
The target of data set [3] is T2, purified recombinant human Pimt (Homo sapiens, UniProt P22061).
T2 construct: purchased Gentaur MBS144034
T2 sequence (P22061 whole entry): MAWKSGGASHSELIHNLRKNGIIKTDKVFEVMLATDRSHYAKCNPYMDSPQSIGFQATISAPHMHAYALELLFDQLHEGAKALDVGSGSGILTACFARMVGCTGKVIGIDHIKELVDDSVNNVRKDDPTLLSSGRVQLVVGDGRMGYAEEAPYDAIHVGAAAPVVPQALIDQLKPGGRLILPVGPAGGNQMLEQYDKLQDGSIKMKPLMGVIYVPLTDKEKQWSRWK
Put plainly: Pimt colorimetric continuous enzyme coupled assay (SAM methyltransferase colorimetric assay). Type of data set: biochemical. Particulars: Pimt 1 µM, substrate 100 µM, 37 °C. As for the experimental part:
SAM Methyltransferase colorimetric assay (Merck) was used to measure the activity of purified recombinant human Pimt (EC 2.1.1.77, MBS144034, Gentaur) on different target substrates at 37 °C. Pimt (1 µM final concentration) enzymatic activity was followed spectrophotometrically by the increase in absorbance at 510 nm using DeNovix DS-11 Series microvolume Spectrophotometer/Fluorometer. Assay was performed on different homo- and heterochiral synthetic substrates Ac-[…]-amide (Peptide 1), Ac-KRKGDEV-(iso-L-Asp)-GVDEVAK-amide (Peptide 2) (both of which HPLC purity is >90%), at 100 µM final concentration. The peptide’s sequence is identical and correspond to the PARP1 fragment which is cleaved by Dcp-1 in the in vivo cleavage assay.

Numbered stars: 1 amine (or outer) side, 2 acyl side, 3 side chain; on linkers, the order of the positions; unused ones are H or OH. Square brackets hold non-standard residues; d marks the D form. Peptide text beside a SMILES is read from it. * marks the point of attachment. βAsp = O=C(O)[C@H](CC(=O)[*:2])N[*:1]; AMC = Cc1cc(=O)oc2cc(N*)ccc12

Take `CC(=O)N[C@@H](CC(=O)O)C(=O)N[C@@H](CCC(=O)O)C(=O)N[C@H](C(=O)N[C@@H](C)C(=O)Nc1ccc2c(C)cc(=O)oc2c1)C(C)C` [Ac-DEVA-AMC, acetyl-DEVA-7-amido-4-methylcoumarin] (Ac-DEVA-{AMC}): the caspase-3 activity was 396 R.F.U in data set [1] (experiment 1), 61 R.F.U in data set [1] (experiment 2) and 164 R.F.U in data set [1] (experiment 3). For the same compound, the “cleavage by Caspase-3 (in words)” value in data set [1] is given as “non-cleavable”.
For the compound `CC(=O)N[C@@H](CC(=O)O)C(=O)N[C@@H](CCC(=O)O)C(=O)N[C@H](C(=O)NCC(=O)Nc1ccc2c(C)cc(=O)oc2c1)C(C)C` [Ac-DEVG-AMC, acetyl-DEVG-7-amido-4-methylcoumarin] (Ac-DEVG-{AMC}), the caspase-3 activity was 650 R.F.U in data set [1] (experiment 1), 558 R.F.U in data set [1] (experiment 2) and 613 R.F.U in data set [1] (experiment 3). In addition, in data set [1], the “cleavage by Caspase-3 (in words)” value was “non-cleavable”.
On to `N[C@@H](CC(=O)O)C(=O)O` [AsparticAcid], for which the “Octanol/water partition coefficient as log Pow” value in data set [2] is given as -3.89.
For `CC(=O)N[C@@H](CCCCN)C(=O)N[C@@H](CCCNC(=N)N)C(=O)N[C@@H](CCCCN)C(=O)NCC(=O)N[C@@H](CC(=O)O)C(=O)N[C@@H](CCC(=O)O)C(=O)N[C@H](C(=O)N[C@@H](CC(=O)O)C(=O)NCC(=O)N[C@H](C(=O)N[C@@H](CC(=O)O)C(=O)N[C@@H](CCC(=O)O)C(=O)N[C@H](C(=O)N[C@@H](C)C(=O)N[C@@H](CCCCN)C(N)=O)C(C)C)C(C)C)C(C)C` [Peptide 1] (Ac-KRKGDEVDGVDEVAK-NH2), in data set [3], the “Pimt enzymatic activity (in words)” value is given as “no enzymatic activity was detected”.
For `CC(=O)N[C@@H](CCCCN)C(=O)N[C@@H](CCCNC(=N)N)C(=O)N[C@@H](CCCCN)C(=O)NCC(=O)N[C@@H](CC(=O)O)C(=O)N[C@@H](CCC(=O)O)C(=O)N[C@H](C(=O)N[C@@H](CC(=O)NCC(=O)N[C@H](C(=O)N[C@@H](CC(=O)O)C(=O)N[C@@H](CCC(=O)O)C(=O)N[C@H](C(=O)N[C@@H](C)C(=O)N[C@@H](CCCCN)C(N)=O)C(C)C)C(C)C)C(=O)O)C(C)C` [Peptide 2] (Ac-KRKGDEV[βAsp]GVDEVAK-NH2), the “Pimt enzymatic activity (in words)” value in data set [3] is on record as “active Pimt enzymatic activity”.
